Data published in patent US20240024488A1, “COMPOUNDS AND USES THEREOF” (Foghorn Therapeutics Inc., priority 2020, published 2024).

How the values were obtained:
[1] = biological target: T1, HiBit-BRG1 fusion protein (Homo sapiens, UniProt P51532); assay: HiBiT-BRG1 cell-based degradation assay (Nano-Glo HiBiT Lytic Detection, 24 h); conditions: HeLa cell line expressing HiBit-BRG1 and LgBit; for Dmax: read-out: BRG1 HiBit Degradation Maximum (%); for DC50: read-out: BRMG1 HiBit Degradation IC50
T1 construct: expressed in transfected cells
Method in brief: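 Stable HeLa line co-expressing HiBit-BRG1 and LgBit, 5000 cells/well, treated 24 h in a tissue culture incubator. Lysed with Nano-Glo HiBiT lytic reagent, luminescence read. % degradation normalized to DMSO (high control) and 2 μM reference BRM/BRG1 degrader (low control).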

HiBit-BRM fusion protein = biological target: T2, HiBit-BRM fusion protein (Homo sapiens, UniProt P51531); assay: HiBiT-BRM cell-based degradation assay (Nano-Glo HiBiT Lytic Detection, 24 h); conditions: HeLa cell line expressing HiBiT-BRM; for DC50: read-out: BRM HiBit Degradation IC50
T2 construct: expressed in transfected cells
Method in brief: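 HeLa cells stably expressing HiBiT-BRM were dosed with compounds (10-point 3-fold dilutions, 30 μM final top dose, duplicate) for 24 h. HiBiT signal was read by lytic LgBiT complementation luminescence. Percent degradation was normalised to DMSO (high control) and 2 μM of a reference BRM/BRG1 degrader (low control).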

T2 sequence (P51531 whole entry, the tested form may be a part): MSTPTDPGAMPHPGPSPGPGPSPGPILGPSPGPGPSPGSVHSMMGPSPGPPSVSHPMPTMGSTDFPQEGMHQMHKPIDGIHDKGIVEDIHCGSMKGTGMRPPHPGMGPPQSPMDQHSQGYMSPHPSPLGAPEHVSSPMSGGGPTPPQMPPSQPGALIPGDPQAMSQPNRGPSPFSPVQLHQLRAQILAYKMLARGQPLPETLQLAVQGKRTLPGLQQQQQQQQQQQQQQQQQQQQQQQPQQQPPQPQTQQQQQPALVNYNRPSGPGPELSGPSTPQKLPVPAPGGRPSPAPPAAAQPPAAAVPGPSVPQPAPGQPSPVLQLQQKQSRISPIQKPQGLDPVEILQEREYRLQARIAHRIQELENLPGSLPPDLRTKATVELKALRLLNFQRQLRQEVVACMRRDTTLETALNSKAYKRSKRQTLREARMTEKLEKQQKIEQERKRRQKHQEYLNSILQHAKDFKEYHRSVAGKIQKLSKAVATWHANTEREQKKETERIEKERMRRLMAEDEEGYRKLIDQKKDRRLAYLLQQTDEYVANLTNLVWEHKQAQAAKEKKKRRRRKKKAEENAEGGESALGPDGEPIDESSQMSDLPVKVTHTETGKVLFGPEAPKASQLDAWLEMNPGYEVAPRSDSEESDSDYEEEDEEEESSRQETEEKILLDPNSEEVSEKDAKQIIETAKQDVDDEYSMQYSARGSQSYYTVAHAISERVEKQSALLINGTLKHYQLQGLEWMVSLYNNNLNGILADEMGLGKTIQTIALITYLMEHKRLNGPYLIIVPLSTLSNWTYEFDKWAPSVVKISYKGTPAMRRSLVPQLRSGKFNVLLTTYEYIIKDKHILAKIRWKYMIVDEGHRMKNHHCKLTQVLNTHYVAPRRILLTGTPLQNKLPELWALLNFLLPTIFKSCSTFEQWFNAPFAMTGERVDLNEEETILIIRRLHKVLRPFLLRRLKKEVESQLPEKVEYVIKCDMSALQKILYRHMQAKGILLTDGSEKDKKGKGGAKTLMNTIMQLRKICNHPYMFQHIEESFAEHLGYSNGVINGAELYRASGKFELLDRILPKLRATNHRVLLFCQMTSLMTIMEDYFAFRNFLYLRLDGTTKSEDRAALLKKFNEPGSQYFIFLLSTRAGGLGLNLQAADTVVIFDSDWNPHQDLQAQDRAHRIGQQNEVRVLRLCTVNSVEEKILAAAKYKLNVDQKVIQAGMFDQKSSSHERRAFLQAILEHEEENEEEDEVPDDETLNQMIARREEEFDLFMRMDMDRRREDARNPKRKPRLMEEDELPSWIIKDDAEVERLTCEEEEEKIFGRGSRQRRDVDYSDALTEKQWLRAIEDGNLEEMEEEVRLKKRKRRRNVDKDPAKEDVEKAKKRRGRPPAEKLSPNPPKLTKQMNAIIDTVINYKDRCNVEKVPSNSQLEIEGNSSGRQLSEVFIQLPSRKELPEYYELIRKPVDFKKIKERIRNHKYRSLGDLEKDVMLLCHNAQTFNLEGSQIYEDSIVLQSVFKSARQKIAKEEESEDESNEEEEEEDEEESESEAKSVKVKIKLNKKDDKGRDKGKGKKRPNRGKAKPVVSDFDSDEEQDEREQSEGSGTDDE
T1 sequence (P51532 whole entry, the tested form may be a part): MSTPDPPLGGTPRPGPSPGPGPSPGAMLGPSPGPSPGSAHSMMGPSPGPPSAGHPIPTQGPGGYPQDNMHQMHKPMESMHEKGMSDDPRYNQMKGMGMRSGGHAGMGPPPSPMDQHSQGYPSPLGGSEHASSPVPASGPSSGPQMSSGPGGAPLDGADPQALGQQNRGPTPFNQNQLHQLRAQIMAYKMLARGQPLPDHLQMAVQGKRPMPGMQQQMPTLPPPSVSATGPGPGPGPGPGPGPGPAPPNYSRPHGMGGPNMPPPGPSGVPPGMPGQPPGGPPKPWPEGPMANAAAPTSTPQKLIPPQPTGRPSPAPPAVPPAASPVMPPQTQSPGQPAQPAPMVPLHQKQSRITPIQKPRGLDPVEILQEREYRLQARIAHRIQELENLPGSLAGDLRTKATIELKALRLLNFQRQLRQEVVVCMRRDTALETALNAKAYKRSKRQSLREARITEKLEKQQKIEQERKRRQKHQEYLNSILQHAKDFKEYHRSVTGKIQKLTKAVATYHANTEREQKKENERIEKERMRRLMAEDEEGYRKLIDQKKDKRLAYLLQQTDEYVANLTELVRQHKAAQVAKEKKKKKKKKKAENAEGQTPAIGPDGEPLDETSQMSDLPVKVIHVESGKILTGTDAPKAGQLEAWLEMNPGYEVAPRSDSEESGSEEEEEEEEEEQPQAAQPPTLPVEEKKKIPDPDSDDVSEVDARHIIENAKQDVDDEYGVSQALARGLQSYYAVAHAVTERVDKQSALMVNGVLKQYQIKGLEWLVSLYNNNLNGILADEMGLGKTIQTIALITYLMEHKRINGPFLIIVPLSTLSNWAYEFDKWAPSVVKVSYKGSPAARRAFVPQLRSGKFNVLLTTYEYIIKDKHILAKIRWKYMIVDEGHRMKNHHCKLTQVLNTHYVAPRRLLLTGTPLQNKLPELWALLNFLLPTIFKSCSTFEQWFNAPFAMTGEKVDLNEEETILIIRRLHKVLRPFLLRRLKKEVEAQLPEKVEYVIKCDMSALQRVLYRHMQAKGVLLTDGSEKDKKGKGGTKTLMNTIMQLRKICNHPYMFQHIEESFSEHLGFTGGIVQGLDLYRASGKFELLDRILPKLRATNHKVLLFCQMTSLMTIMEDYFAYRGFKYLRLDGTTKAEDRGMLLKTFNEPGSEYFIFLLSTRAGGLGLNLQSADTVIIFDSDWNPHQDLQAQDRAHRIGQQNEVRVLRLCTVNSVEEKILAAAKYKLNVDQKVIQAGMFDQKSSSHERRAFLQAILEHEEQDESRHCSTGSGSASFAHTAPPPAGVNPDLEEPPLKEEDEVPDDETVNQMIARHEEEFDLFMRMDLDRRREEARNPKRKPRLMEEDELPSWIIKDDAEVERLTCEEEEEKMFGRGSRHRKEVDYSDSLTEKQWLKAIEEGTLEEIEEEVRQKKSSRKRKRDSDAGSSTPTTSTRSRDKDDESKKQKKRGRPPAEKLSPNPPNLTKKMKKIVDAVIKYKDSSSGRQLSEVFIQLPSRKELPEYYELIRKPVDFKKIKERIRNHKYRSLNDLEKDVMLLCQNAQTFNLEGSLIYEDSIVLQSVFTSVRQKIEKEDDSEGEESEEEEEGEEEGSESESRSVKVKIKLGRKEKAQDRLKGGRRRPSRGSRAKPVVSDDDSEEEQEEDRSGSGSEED

Row | SMILES | Dmax [1] | DC50 [1] | BRM HiBit Degradation Maximum (%) (HiBit-BRM fusion protein) | DC50 (HiBit-BRM fusion protein)
1 | Cc1ncsc1-c1ccc([C@H](C)NC(=O)[C@@H]2C[C@@H](O)CN2C(=O)[C@@H](c2cc(N3CCN(CCC(=O)N4CC(c5c[nH]c6nnc(-c7ccccc7O)cc56)C4)CC3)no2)C(C)C)cc1 (racemic) [Compound 251, (2S,4R)-4-hydroxy-1-((R)-2-(3-(4-(3-(3-(3-(2-hydroxyphenyl)-7H-pyrrolo[2,3-c]pyridazin-5-yl)azetidin-1-yl)-3-oxopropyl)piperazin-1-yl)isoxazol-5-yl)-3-methylbutanoyl)-N-((S)-1-(4-(4-methylthiazol-5-yl)phenyl)ethyl)pyrrolidine-2-carboxamide] | > 75% | > 100 nM | A (“A” indicates maximum degradation ≥ 75%) | > 100 nM
2 | Cc1ncsc1-c1ccc([C@H](C)NC(=O)[C@@H]2C[C@@H](O)CN2C(=O)C(c2cc(OCC(=O)N[C@@]3(C(=O)O)CCc4[nH]c5nnc(-c6ccccc6O)cc5c4C3)no2)C(C)C)cc1 (single isomer, unassigned) [Compound 88] | < 50% | – | C (“C” indicates maximum degradation < 50%) | –
3 | Cc1ncsc1-c1ccc([C@H](C)NC(=O)[C@@H]2C[C@@H](O)CN2C(=O)[C@@H](c2cc(OCCN(C)[C@@H]3CCc4[nH]c5nnc(-c6ccccc6O)cc5c4C3)no2)C(C)C)cc1 [Compound 156, (2S,4R)-4-hydroxy-1-((R)-2-(3-(2-(((R)-3-(2-hydroxyphenyl)-6,7,8,9-tetrahydro-5H-pyridazino[3,4-b]indol-6-yl)(methyl)amino)ethoxy)isoxazol-5-yl)-3-methylbutanoyl)-N-((S)-1-(4-(4-methylthiazol-5-yl)phenyl)ethyl)pyrrolidine-2-carboxamide] | < 50% | – | A (“A” indicates maximum degradation ≥ 75%) | > 10 nM
4 | Cc1ncsc1-c1ccc([C@H](C)NC(=O)[C@@H]2C[C@@H](O)CN2C(=O)[C@@H](c2cc(OCCN3CC(c4[nH]c5nnc(-c6cc(F)cc(Cl)c6O)cc5c4C)C3)no2)C(C)C)cc1 (racemic) [Compound 129, (2S,4R)-1-((R)-2-(3-(2-(3-(3-(3-chloro-5-fluoro-2-hydroxyphenyl)-5-methyl-7H-pyrrolo[2,3-c]pyridazin-6-yl)azetidin-1-yl)ethoxy)isoxazol-5-yl)-3-methylbutanoyl)-4-hydroxy-N-((S)-1-(4-(4-methylthiazol-5-yl)phenyl)ethyl)pyrrolidine-2-carboxamide] | > 50% | > 100 nM | A (“A” indicates maximum degradation ≥ 75%) | > 10 nM
5 | Cc1ncsc1-c1ccc([C@H](C)NC(=O)[C@@H]2C[C@@H](O)CN2C(=O)[C@@H](c2cc(OCCN3CC(COc4c[nH]c5nnc(-c6ccccc6O)cc45)C3)no2)C(C)C)cc1 (racemic) [Compound 185, (2S,4R)-4-hydroxy-1-[(2R)-2-(3-{2-[3-{{[3-(2-hydroxyphenyl)-7H-pyrrolo[2,3-c]pyridazin-5-yl]oxy}methyl)azetidin-1-yl]ethoxy}-1,2-oxazol-5-yl)-3-methylbutanoyl]-N-[(1S)-1-[4-(4-methyl-1,3-thiazol-5-yl)phenyl]ethyl]pyrrolidine-2-carboxamide] | > 75% | > 1000 nM | A (“A” indicates maximum degradation ≥ 75%) | > 100 nM
6 | O=C1CCC(N2C(=O)c3cccc(OCCCCCCCC(=O)N4CC(c5cc6cc(-c7ccccc7O)nnc6[nH]5)C4)c3C2=O)C(=O)N1 (stereo not shown) [Compound 30, 2-(2,6-dioxopiperidin-3-yl)-4-((8-(3-(3-(2-hydroxyphenyl)-7H-pyrrolo[2,3-c]pyridazin-6-yl)azetidin-1-yl)-8-oxooctyl)oxy)isoindoline-1,3-dione] | < 50% | – | C (“C” indicates maximum degradation < 50%) | –
7 | Cc1ncsc1-c1ccc([C@H](C)NC(=O)[C@@H]2C[C@@H](O)CN2C(=O)[C@@H](c2cc(OCCN(C)C(=O)c3cc4cc(-c5ccccc5O)nnc4[nH]3)no2)C(C)C)cc1 (racemic) [Compound 242, N-(2-((5-((R)-1-((2S,4R)-4-hydroxy-2-(((S)-1-(4-(4-methylthiazol-5-yl)phenyl)ethyl)carbamoyl)pyrrolidin-1-yl)-3-methyl-1-oxobutan-2-yl)isoxazol-3-yl)oxy)ethyl)-3-(2-hydroxyphenyl)-N-methyl-7H-pyrrolo[2,3-c]pyridazine-6-carboxamide] | < 50% | – | B (“B” indicates maximum degradation ≥ 50%) | > 100 nM
8 | Cc1ncsc1-c1ccc([C@H](C)NC(=O)[C@@H]2C[C@@H](O)CN2C(=O)[C@@H](c2cc(OCCN3CC(c4cc5cc(-c6cc(F)ccc6O)nnc5[nH]4)C3)no2)C(C)C)cc1 (racemic) [Compound 288, (2S,4R)-1-((R)-2-(3-(2-(3-(3-(5-fluoro-2-hydroxyphenyl)-7H-pyrrolo[2,3-c]pyridazin-6-yl)azetidin-1-yl)ethoxy)isoxazol-5-yl)-3-methylbutanoyl)-4-hydroxy-N-((S)-1-(4-(4-methylthiazol-5-yl)phenyl)ethyl)pyrrolidine-2-carboxamide] | < 50% | – | A (“A” indicates maximum degradation ≥ 75%) | > 100 nM
9 | Cc1ncsc1-c1ccc([C@H](C)NC(=O)[C@@H]2C[C@@H](O)CN2C(=O)[C@H](c2cc(C3CCN(C(=O)[C@H]4CCc5[nH]c6nnc(-c7ccccc7O)cc6c5C4)CC3)no2)C(C)C)cc1 (single isomer, unassigned) [Compound 155] | < 50% | – | C (“C” indicates maximum degradation < 50%) | –
10 | Cc1ncsc1-c1ccc(CNC(=O)[C@@H]2C[C@@H](O)CN2C(=O)[C@@H](NC(=O)CCN2CC(c3cc4cc(-c5ccccc5O)nnc4[nH]3)C2)C(C)(C)C)cc1 [Compound 16, (2S,4R)-4-hydroxy-1-((S)-2-(3-(3-(3-(2-hydroxyphenyl)-7H-pyrrolo[2,3-c]pyridazin-6-yl)azetidin-1-yl)propanamido)-3,3-dimethylbutanoyl)-N-(4-(4-methylthiazol-5-yl)benzyl)pyrrolidine-2-carboxamide] | < 50% | – | C (“C” indicates maximum degradation < 50%) | –
11 | Cc1ncsc1-c1ccc([C@H](C)NC(=O)[C@@H]2C[C@@H](O)CN2C(=O)[C@@H](c2cc(OCCN3C[C@@H]4[C@H](C3)[C@H]4c3[nH]c4nnc(-c5cccc(F)c5O)cc4c3C)no2)C(C)C)cc1 (racemic) [Compound 126, (2S,4R)-1-((R)-2-(3-(2-((1R,5S,6R)-6-(3-(3-fluoro-2-hydroxyphenyl)-5-methyl-7H-pyrrolo[2,3-c]pyridazin-6-yl)-3-azabicyclo[3.1.0]hexan-3-yl)ethoxy)isoxazol-5-yl)-3-methylbutanoyl)-4-hydroxy-N-((S)-1-(4-(4-methylthiazol-5-yl)phenyl)ethyl)pyrrolidine-2-carboxamide] | > 50% | > 100 nM | A (“A” indicates maximum degradation ≥ 75%) | > 10 nM
12 | Cc1ncsc1-c1ccc([C@H](C)NC(=O)[C@@H]2C[C@@H](O)CN2C(=O)[C@@H](c2cc(OCCN3CC(c4[nH]c5nnc(-c6cccc(F)c6O)cc5c4C)C3)no2)C(C)C)cc1 (racemic) [Compound 127, (2S,4R)-1-((R)-2-(3-(2-(3-(3-(3-fluoro-2-hydroxyphenyl)-5-methyl-7H-pyrrolo[2,3-c]pyridazin-6-yl)azetidin-1-yl)ethoxy)isoxazol-5-yl)-3-methylbutanoyl)-4-hydroxy-N-((S)-1-(4-(4-methylthiazol-5-yl)phenyl)ethyl)pyrrolidine-2-carboxamide] | < 50% | – | A (“A” indicates maximum degradation ≥ 75%) | > 10 nM
13 | Cc1ncsc1-c1ccc([C@H](C)NC(=O)[C@@H]2C[C@@H](O)CN2C(=O)[C@@H](c2cc(N3CCC(N4CC5(Cc6cc(-c7ccccc7O)nnc6N5)C4)CC3)no2)C(C)C)cc1 (racemic) [Compound 98, (2S,4R)-4-hydroxy-1-((R)-2-(3-(4-(3′-(2-hydroxyphenyl)-5′,7′-dihydrospiro[azetidine-3,6′-pyrrolo[2,3-c]pyridazin]-1-yl)piperidin-1-yl)isoxazol-5-yl)-3-methylbutanoyl)-N-((S)-1-(4-(4-methylthiazol-5-yl)phenyl)ethyl)pyrrolidine-2-carboxamide] | < 50% | – | A (“A” indicates maximum degradation ≥ 75%) | > 10 nM
14 | Cc1ncsc1-c1ccc([C@H](C)NC(=O)[C@@H]2C[C@@H](O)CN2C(=O)[C@@H](c2onc(OCCN3CC(c4cc5cc(-c6ccccc6O)nnc5[nH]4)C3)c2Cl)C(C)C)cc1 (racemic) [Compound 266, (2S,4R)-1-((R)-2-(4-chloro-3-(2-(3-(3-(2-hydroxyphenyl)-7H-pyrrolo[2,3-c]pyridazin-6-yl)azetidin-1-yl)ethoxy)isoxazol-5-yl)-3-methylbutanoyl)-4-hydroxy-N-((S)-1-(4-(4-methylthiazol-5-yl)phenyl)ethyl)pyrrolidine-2-carboxamide] | > 75% | > 100 nM | A (“A” indicates maximum degradation ≥ 75%) | > 10 nM
15 | Cc1ncsc1-c1ccc([C@H](C)NC(=O)[C@@H]2C[C@@H](O)CN2C(=O)[C@@H](c2cc(OCCN3CC[C@@H](c4c(C)[nH]c5nnc(-c6ccccc6O)cc45)C3)no2)C(C)C)cc1 (single isomer, unassigned) [Compound 232] | < 50% | – | C (“C” indicates maximum degradation < 50%) | > 1000 nM
